Values of other authors, collected in PMC4791210 (International immunopharmacology, 2015).

Experiments:
[1] = system: fMLF-stimulated neutrophils; conditions: list of responses inhibited; ref per compound in References column of Table 1; cited from earlier work
human neutrophils = conditions: cited from earlier work; for Inhibition of fMLF-induced Ca2+ flux in neutrophils / Inhibition of fMLF-induced Ca2+ mobilization in human neutrophils: result in words
neutrophils = conditions: read-out: IC50, inhibition of fMLF-stimulated neutrophil degranulation; cited from earlier work
[2] = system: fMLF-stimulated neutrophils; conditions: result in words; cited from earlier work
FPR1 [3] = molecular target: T1, FPR1 (Homo sapiens, UniProt P21462); conditions: result in words; cited from earlier work
T1 sequence (P21462 1-350): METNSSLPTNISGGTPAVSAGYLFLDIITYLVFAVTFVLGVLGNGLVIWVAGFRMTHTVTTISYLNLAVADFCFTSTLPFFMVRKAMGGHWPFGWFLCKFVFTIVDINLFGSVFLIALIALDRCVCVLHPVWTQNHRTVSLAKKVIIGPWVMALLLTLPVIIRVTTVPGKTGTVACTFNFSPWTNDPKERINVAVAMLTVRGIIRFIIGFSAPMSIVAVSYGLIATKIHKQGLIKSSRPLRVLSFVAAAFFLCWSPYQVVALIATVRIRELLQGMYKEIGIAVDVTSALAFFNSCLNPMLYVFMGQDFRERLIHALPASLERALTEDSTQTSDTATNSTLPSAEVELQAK

rat neutrophils = conditions: fMLF-stimulated rat neutrophils, cited from earlier work
monocytes = conditions: read-out: IC50, inhibition of fMLF-induced monocyte locomotion; cited from earlier work
FPR1 [4] = conditions: cited from earlier work
FPR1 [5] = molecular target: T1, FPR1; conditions: read-out: IC50, displacement of [3H]-fMLF; FPR1-transfected RBL cells; cited from earlier work
FPR2 = conditions: cited from earlier work
[6] = animal experiments; cited from earlier work
[7] = animal experiments; cited from earlier work; remark: listed apart in the source

## C=C(CO)[C@@H]1CC[C@]2(C)CC[C@]3(C)[C@H](CC[C@@H]4[C@@](C)(CC(=O)O)[C@H](C(C)(C)C(=O)O)CC[C@]43C)[C@@H]12 [Triterpene 17, 30-hydroxy-2,3-seco-lup-20(29)-ene-2,3-dioic acid]
[1]
  fMLF-induced Responses Inhibited in Neutrophils: O2^−· production, HNE release

## COc1cc(CCCc2c(OC)cc(O)c(OC)c2OC)ccc1O [Viscolin]
Human neutrophils
  Inhibition of fMLF-induced Ca2+ flux in neutrophils: did not inhibit

## CC1(C)C=Cc2cc3ccc(=O)oc3cc2O1 [Xanthyletin]
[1]
  fMLF-induced Responses Inhibited in Neutrophils: O2^−· Production, HNE release

## COc1ccc(-c2coc3cc(O)c(OC)cc3c2=O)cc1 [afrormosin]
Human neutrophils
  Inhibition of fMLF-induced Ca2+ mobilization in human neutrophils: none
neutrophils
  IC50: ~67 µM

## C=C(C)[C@@H]1CC[C@]2(C(=O)O)CC[C@]3(C)[C@H](CC[C@@H]4[C@@]5(C)CC[C@H](O)C(C)(C)[C@@H]5CC[C@]43C)[C@@H]12 [betulinic acid]
[2]
  Effect on fMLF-induced release of HNE: did not affect

## COc1c(C(=O)CCc2ccccc2)c(O)c(O)c2c1/C(=C/c1ccccc1)C(=O)O2 [bractelactone]
Human neutrophils
  Inhibition of fMLF-induced Ca2+ flux in neutrophils: did not inhibit

## O=c1c(-c2ccc(O)cc2)coc2cc(O)ccc12 [daidzein]
Human neutrophils
  Inhibition of fMLF-induced Ca2+ mobilization in human neutrophils: none

## COc1ccc(-c2coc3cc(O)ccc3c2=O)cc1 [formononetin]
Human neutrophils
  Inhibition of fMLF-induced Ca2+ mobilization in human neutrophils: none

## O=c1c(-c2ccc(O)cc2)coc2cc(O)cc(O)c12 [genistein]
Human neutrophils
  Inhibition of fMLF-induced Ca2+ mobilization in human neutrophils: none and did not antagonize
FPR1 [3]
  Inhibition of fMLF-induced Ca2+ flux in FPR1-HL60 cells: did not antagonize

## COc1c(O)c(OC)c2c(c1OC)O[C@H](c1ccccc1)CC2=O [isopedicin]
Human neutrophils
  Inhibition of fMLF-induced Ca2+ flux in neutrophils: did not inhibit

## CC[C@H](CC[C@@H](C)[C@H]1CC[C@H]2[C@@H]3CC(=O)C4=CC(=O)CC[C@]4(C)[C@H]3CC[C@]12C)C(C)C [stigmast-4-ene-3,6-dione]
Rat neutrophils
  Concentrations that inhibited O2−· production: 30 to 100 µM

## CC[C@H](CC[C@@H](C)[C@H]1CC[C@H]2[C@@H]3CC(=O)C4CC(=O)CC[C@]4(C)[C@H]3CC[C@]12C)C(C)C (some centres unmarked) [stigmastane-3,6-dione]
Rat neutrophils; result in words
  Inhibition of O2−· production: non-active

## C[C@H](CCC(=O)NCCS(=O)(=O)O)[C@H]1CC[C@H]2[C@@H]3[C@@H](O)C[C@@H]4C[C@H](O)CC[C@]4(C)[C@H]3CC[C@]12C [tauroursodeoxycholic acid]
Human neutrophils; read-out: IC50, inhibition of fMLF-induced Ca2+ mobilization
  IC50: ~500 µM

## (+)-Episesamin
[1]
  fMLF-induced Responses Inhibited in Neutrophils: O2^−· production, HNE release

## Aristolatams IIIa
[1]
  fMLF-induced Responses Inhibited in Neutrophils: O2^−· production, HNE release

## Berryammone A
[1]
  fMLF-induced Responses Inhibited in Neutrophils: O2^−· production, HNE release

## Berryammone B
[1]
  fMLF-induced Responses Inhibited in Neutrophils: O2^−· production, HNE release

## Lawsochylin A
[1]
  fMLF-induced Responses Inhibited in Neutrophils: O2^−· production, HNE release

## Lawsonaphthoate A
[1]
  fMLF-induced Responses Inhibited in Neutrophils: O2^−· production, HNE release

## cyclized SRSRY: cyclized form of urokinase receptor-derived peptide Ser-Arg-Ser-Arg-Tyr (not fully specified; cyclized; printed: Ser-Arg-Ser-Arg-Tyr)
monocytes
  IC50: 0.01 nM
FPR1 [4]
  Binding of FITC-labeled fMLF to FPR1 transfected cells: inhibited binding

## cyclosporine A [CsA]
FPR1 [5]
  IC50: 1.8 µM
FPR2
  Inhibitory effects on FPR2-mediated cellular functions: did not exhibit any obvious inhibitory effects

## cyclosporine H [CsH]
FPR2
  Inhibitory effects on FPR2-mediated cellular functions: did not exhibit any obvious inhibitory effects
[6]
  Effect on fMLF-induced analgesia: blocked
[7]
  Effect on acute inflammatory response evoked by cigarette smoke: attenuated

## hecogenin
Rat neutrophils
  Concentrations that inhibited O2−· production: 30 to 100 µM
